# Measured values published in US20060211744A1, “3-Pyridinecarboxamide reduces nerve degeneration” (Children's Medical Center, priority 2005, published 2006).
# Read-outs that look alike come from different tables or passages of the source.
# Tests used:
# [1] = test system: cultured DRG neurons (transected axons); experiment: Axon degeneration after transection of axons of cultured DRG neurons (Wallerian degeneration); assay type: cell-based; conditions: sirturin inhibitors; nicotinamide at 50 μM
# Method: (§1) As a first step in examining the role of NAD in Wallerian degeneration, we used an ultra-sensitive high-performance liquid chromatography (HPLC) method (Micheli and Sestini, 1997) to measure the concentration of NAD and its derivatives in degenerating axons. To do this, the acidic lysates were prepared from axonal segments collected at different time points after transecting the axons from cultured dorsal root ganglia (DRG) and resolved by reverse-phase chromatography. 2 hr after axotomy, when the transected axons were still morphologically indistinguishable from their uncut controls, NAD levels began to decrease. This NAD decrease continued over the course of degeneration, reaching about 50% at 4 hr post-axotomy, to almost undetectable levels by 6 hr after axotomy, when early morphological signs of degeneration began to develop. […] By a similar approach of alkaline extraction (Micheli and Sestini, 1997), it has been difficult for us to detect NADH in the axonal extracts, presumably due to the low abundance of NADH and the high NAD/NADH ratio reported in mammalian cells (Zhang et al., 2002, Kasischke et al., 2004, Kannurpatti et al., 2004).
# To definitively determine whether preventing the local decrease in NAD levels could mediate axon protection, we employed soma-free axonal segments that have been separated from their soma as models to examine the protective effects of different pharmacological treatments. It has been shown that exogenously provided NAD, when directly added to the culture medium of DRG neurons, can be transported across the axonal membrane (Araki et al., 2004). Thus, we first examined the protective effects of different concentrations of NAD added to the culture before or after axon transection and removal of ganglia.
# To further assess the local and nuclear contribution to such an NAD-dependent protection, we compared the protective effects of NAD provided at different time points. […] In this respect, our results are inconsistent with those shown by Araki et al (2004), possibly due to the different concentrations of NAD used in our studies (1-20 mM) and by Araki et al (0.1 to 1 mM).
# We next attempted to explore the possible mechanisms underlying this local NAD-dependent axon protection. […] A possible explanation for this discrepancy between Araki et al (2004) and our results is the different approaches used to block Sirt1 activity. […] It is known that […], other sirturins exist and some of these proteins are localized in the cytoplasmic compartment (Onyango et al., 2002; North et al., 2003).
# [2] = test system: SOD1-G93A transgenic mice; assay type: in vivo; conditions: for reduction of neural degeneration in ALS mice, behavioral testing: subcutaneous, daily from 10 weeks from birth
# [3] = test system: transected axons from cultured dorsal root ganglia (DRG); experiment: HPLC measurement of NAD and ATP levels in degenerating axons of cultured DRG; assay type: cell-based
# Method: as §1
# In addition to acting as co-factors for Sirt1 and other NAD-dependent enzymes, NAD is also essential for ATP-synthesizing redox reactions which are involved in glycolysis and oxidative phosphorylation (Shibata et al., 1991). […]
# [4] = test system: EAE mice (wild type or Wlds); experiment: Mouse EAE model, subcutaneous nicotinamide (Example 9 end, Example 12); assay type: in vivo; conditions: for reduction of neural degeneration in EAE mice: daily from day of MOG immunization
# Method: In initial experiments, we administered nicotinamide daily starting from the day of immunization by MOG peptide, and found efficacy in both 125 mg/kg and 500 mg/kg treatment groups. We have also examined groups of mice wherein initiation of nicotinamide administration was delayed until 10 days after the immunization by MOG peptide (delayed treatment group), to better model clinical conditions wherein patients typically begin treatment after onset of pathogenic autoimmunity.
# In this example we administered NAm by daily subcutaneous injection at two different dosages (125 or 500 mg/kg, dissolved by PBS) starting from the day of MOG immunization. As a control, we administered the same volume of PBS into either wild type or Wld^s mice. The EAE models were induced following essentially the procedure described in Kalyvas et al (2004, Neuron 41, 323-335). Other protocols were adapted from Wang, et al. (2005) J. Cell. Biol. 170: 349-355.
# We started treatments with NAm (500 mg/kg, daily subcutaneous injection) from 10 days P.I. when most of the animals already have clear clinical symptoms.
# [5] = SOD1-G93A, nicotinamide diet from 7 wk of age
# [6] = 500 mg/kg daily s.c. from 10 days P.I.
structure (smiles),measurement,setting,value
"NC(=O)c1cccnc1 [nicotinamide, 3-pyridinecarboxamide]",attenuation of the protective effect of Nmnat1 or NAD,[1],did not attenuate the protective effect
same,age at bilateral hindlimb paralysis,"[2]; SOD1-G93A, both normal diet and nicotinamide diet",127-157 days of age
same,age through to which walking capacity is improved (grid walking test),"[2]; SOD1-G93A, nicotinamide diet",124 days of age
same,age through to which motor functions are preserved (Rotarod),"[2]; SOD1-G93A, nicotinamide diet (control diet onset 108 days)",120 days of age
same,"onset of impairment in balance, coordination and muscle strength (Rotarod)",[2]; [5],significantly delays the onset of impairment
same,walking capacity (grid walking test),[2]; [5],significantly improves walking capacity
same,Rotarod performance score (latency),"[2]; mouse, in vivo",180 s
same,body condition scoring (BCS),"[2]; mouse, in vivo",3
same,foot miss scores (grid walking test),"[2]; mouse, in vivo",0
same,"general health and neurologic status (lacrimation/salivation, eye blink, ear twitch, pupillary response, whisker orienting reflex)","[2]; mouse, in vivo",no obvious differences
same,"reduction of neural degeneration in ALS mice, behavioral testing",[2]; 125 mg/kg,efficacy
same,"reduction of neural degeneration in ALS mice, behavioral testing",[2]; 500 mg/kg,efficacy
same,axonal NAD levels after transection (HPLC),[3]; exogenously applied,delayed the decrease of axonal NAD levels
same,ATP levels in transected axons separated from their somas,[3]; exogenously provided,delayed the decrease of ATP levels
same,"NAD levels, delayed treatment",[4]; [6],increased NAD levels effectively
same,"further development of EAE symptoms, delayed treatment",[4]; [6],efficiently attenuated further development of EAE symptoms
same,"number of degenerating axons, delayed treatment","[4]; 500 mg/kg daily s.c. from 10 days P.I., 8 weeks P.I.",significantly reduced the number of degenerating axons
same,degenerating axons detected compared with untreated animals,"[4]; Wlds mice, high dose",~5%
same,effect on EAE symptoms,"[4]; Wlds mice, high dose 500 mg/kg",More dramatic improvements
same,NAD levels at 2 and 4 weeks P.I.,"[4]; Wlds mice, high dose (500 mg/kg) s.c.",remained at high levels
same,axons remaining morphologically intact (Toluidine Blue),"[4]; Wlds mice, high dose, 8 weeks P.I.",~90%
same,NAD levels at 2 weeks P.I.,[4]; daily s.c. 125 or 500 mg/kg from day of MOG immunization,dramatically increased NAD levels in a dose-dependent manner
same,reduction of neural degeneration in EAE mice,"[4]; subcutaneous, 125 mg/kg",efficacy
same,reduction of neural degeneration in EAE mice,"[4]; subcutaneous, 500 mg/kg",efficacy
same,"neural degeneration versus matched controls, delayed treatment group","[4]; subcutaneous, started 10 days after MOG immunization",reduced neural degeneration
same,axons in peripheral regions of the spinal cord,"[4]; wild type EAE mice, high dose",increased numbers of demyelinated but preserved axons
same,numbers of SMI-32-positive axons,"[4]; wild type and Wlds mice, 2, 4 and 8 weeks P.I.",significantly reduced numbers
same,onset and development of EAE symptoms,"[4]; wild type mice, 125 or 500 mg/kg s.c. daily",ameliorated the onset and development of EAE symptoms in a dose-dependent manner
same,NAD levels at 4 weeks P.I.,"[4]; wild type mice, continuous daily s.c. administration",returned to near-normal levels
same,degenerating axons detected compared with untreated animals,"[4]; wild type mice, high dose",approximately 10%
same,effect on EAE onset and severity,"[4]; wild type mice, high dose 500 mg/kg",significant improvement
same,axons remaining morphologically intact (Toluidine Blue),"[4]; wild type mice, high dose, 8 weeks P.I. (control wild type EAE 25%)",approximately 70%
